For one assay, the target named is SMARCA2 (Homo sapiens, UniProt P51531). Briefly: HiBit assay in engineered HT1080 CRISPR knock-in cell, 6 hrs (B series), SMARCA2. It is filed as cell-based. Conditions: 6 hrs incubation; for DC50: read-out: SMARC A2 HT1080 HiBit DC50; for Dmax: HT-1080, HT1080 CRISPR knock-in cells, read-out: SMARC A2 HT1080 HiBit Dmax (%). An outline of the steps: (§1)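 Using a 6 hr treatment window at 37° C and 5% CO2, tagged HT1080 knock-in cells were exposed to test compounds with DMSO vehicle held at 0.1%. Signal came from lytic LgBiT/substrate reagent added after incubation, with control wells lacking LgBiT, and was read as luminescence.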
Chain of SMARCA2 (P51531 whole entry): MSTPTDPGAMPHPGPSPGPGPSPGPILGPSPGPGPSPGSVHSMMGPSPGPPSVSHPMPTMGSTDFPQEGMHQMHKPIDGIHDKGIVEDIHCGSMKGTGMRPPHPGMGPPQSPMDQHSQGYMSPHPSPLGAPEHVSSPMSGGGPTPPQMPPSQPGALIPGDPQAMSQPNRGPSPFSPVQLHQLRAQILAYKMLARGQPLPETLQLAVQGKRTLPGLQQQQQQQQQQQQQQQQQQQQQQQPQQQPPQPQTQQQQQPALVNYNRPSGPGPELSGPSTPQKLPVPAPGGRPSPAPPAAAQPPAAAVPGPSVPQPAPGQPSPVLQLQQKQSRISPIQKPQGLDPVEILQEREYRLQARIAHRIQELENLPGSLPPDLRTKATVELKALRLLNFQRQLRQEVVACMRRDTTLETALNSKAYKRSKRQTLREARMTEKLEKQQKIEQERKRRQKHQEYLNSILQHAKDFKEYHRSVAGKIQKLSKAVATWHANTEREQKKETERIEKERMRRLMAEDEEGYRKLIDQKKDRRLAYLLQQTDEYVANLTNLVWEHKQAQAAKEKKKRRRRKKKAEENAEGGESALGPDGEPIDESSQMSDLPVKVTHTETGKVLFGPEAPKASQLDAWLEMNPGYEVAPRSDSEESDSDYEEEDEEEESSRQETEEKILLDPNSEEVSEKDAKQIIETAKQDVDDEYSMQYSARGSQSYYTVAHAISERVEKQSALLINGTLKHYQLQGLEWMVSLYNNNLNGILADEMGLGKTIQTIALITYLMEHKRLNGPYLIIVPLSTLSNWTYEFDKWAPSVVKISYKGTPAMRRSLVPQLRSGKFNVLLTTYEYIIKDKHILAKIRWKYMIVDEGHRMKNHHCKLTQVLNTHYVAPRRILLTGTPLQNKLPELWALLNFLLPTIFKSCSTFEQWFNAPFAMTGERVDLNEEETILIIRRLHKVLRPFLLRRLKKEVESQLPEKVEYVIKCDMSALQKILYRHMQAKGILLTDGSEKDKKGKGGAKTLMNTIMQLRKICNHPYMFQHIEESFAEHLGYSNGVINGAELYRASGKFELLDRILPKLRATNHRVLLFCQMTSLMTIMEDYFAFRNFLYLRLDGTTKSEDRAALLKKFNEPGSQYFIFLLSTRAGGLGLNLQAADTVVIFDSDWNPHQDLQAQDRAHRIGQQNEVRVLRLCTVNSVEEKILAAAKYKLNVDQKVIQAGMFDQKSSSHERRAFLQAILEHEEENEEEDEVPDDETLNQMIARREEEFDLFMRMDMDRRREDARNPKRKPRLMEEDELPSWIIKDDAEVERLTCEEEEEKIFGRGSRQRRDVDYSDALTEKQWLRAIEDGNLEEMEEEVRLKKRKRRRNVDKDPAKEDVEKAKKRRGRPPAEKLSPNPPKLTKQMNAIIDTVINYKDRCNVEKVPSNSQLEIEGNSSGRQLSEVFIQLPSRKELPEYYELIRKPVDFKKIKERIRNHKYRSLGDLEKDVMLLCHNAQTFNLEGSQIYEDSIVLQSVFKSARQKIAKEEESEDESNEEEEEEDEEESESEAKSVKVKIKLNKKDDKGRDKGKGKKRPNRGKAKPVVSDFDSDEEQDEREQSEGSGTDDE
A general note: With HiBiT, luminescence reflects the tagged protein that the partner subunit can reach.

In a further assay the target is SMARCA4 (Homo sapiens, UniProt P51532). As to the kind of experiment: HiBit assay in engineered HT1080 CRISPR knock-in cell, 6 hrs (B series), SMARCA4. It counts as cell-based. Particulars: 6 hrs incubation; for DC50: read-out: SMARC A4 HT1080 HiBit DC50; for Dmax: HT-1080, HT1080 CRISPR knock-in cells, read-out: SMARC A4 HT1080 HiBit Dmax(%). An outline of the steps: as §1
Chain of SMARCA4 (P51532 whole entry): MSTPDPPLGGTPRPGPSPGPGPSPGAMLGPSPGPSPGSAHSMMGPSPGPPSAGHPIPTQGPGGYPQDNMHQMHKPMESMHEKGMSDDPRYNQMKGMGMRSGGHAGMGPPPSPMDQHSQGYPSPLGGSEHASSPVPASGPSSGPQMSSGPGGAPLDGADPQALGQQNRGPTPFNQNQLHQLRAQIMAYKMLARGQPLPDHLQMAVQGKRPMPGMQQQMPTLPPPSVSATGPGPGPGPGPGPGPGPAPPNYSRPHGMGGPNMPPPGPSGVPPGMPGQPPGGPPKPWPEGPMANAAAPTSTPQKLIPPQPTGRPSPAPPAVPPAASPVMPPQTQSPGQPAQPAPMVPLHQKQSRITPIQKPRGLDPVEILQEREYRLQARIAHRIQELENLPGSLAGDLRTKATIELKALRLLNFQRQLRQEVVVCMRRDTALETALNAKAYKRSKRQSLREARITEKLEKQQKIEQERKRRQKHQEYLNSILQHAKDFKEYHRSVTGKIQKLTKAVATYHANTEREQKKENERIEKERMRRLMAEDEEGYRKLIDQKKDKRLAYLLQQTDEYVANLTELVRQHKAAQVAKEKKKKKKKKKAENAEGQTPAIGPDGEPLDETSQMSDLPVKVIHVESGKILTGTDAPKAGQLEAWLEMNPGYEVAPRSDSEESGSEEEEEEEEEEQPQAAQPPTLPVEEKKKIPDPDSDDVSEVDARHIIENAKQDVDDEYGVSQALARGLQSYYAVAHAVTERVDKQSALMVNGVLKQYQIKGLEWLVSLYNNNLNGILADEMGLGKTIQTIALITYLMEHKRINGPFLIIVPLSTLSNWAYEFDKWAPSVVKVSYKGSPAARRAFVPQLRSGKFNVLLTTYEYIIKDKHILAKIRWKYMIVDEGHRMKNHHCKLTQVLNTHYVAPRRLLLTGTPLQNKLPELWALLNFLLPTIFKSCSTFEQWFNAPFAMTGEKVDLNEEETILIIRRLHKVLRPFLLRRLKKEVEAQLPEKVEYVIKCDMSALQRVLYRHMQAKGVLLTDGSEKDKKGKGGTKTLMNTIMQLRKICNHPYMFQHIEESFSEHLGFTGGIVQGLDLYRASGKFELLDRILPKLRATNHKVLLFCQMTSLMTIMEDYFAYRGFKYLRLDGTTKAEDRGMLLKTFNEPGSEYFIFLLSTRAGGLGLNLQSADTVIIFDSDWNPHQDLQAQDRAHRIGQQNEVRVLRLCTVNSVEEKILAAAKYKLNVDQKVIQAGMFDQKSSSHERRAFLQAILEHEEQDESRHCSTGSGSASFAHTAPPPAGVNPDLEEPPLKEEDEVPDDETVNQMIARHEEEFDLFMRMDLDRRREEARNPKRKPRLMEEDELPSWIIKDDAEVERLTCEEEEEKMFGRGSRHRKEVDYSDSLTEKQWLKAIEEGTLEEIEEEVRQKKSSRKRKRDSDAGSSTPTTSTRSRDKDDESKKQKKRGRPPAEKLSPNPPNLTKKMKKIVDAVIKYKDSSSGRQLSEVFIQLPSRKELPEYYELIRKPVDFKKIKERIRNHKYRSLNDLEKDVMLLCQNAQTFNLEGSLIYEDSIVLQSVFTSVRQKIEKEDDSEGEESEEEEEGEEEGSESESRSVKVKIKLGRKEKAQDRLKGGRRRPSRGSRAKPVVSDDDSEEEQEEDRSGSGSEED

In the case of `Cc1ncsc1-c1ccc([C@H](C)NC(=O)[C@@H]2C[C@@H](O)CN2C(=O)[C@@H](c2cc(OC3CCC(CN4CCC(c5ccc6c(c5)C(C)(C)c5nc(=O)c7c(Cl)cccc7n5-6)CC4)CC3)no2)C(C)C)cc1` (stereo partly drawn) [Compound B30, (2S,4R)-1-((R)-2-(3-((4-((4-(4-chloro-7,7-dimethyl-5-oxo-5,7-dihydroindolo[1,2-a]quinazolin-9-yl)piperidin-1-yl)methyl)cyclohexyl)oxy)isoxazol-5-yl)-3-methylbutanoyl)-4-hydroxy-N-((S)-1-(4-(4-methylthiazol-5-yl)phenyl)ethyl)pyrrolidine-2-carboxamide], the DC50 on SMARCA2 (HT1080 CRISPR knock-in cells) and at SMARCA4 (HT1080 CRISPR knock-in cells) was less than 0.1 µM each time. Moreover, the Dmax on SMARCA2 and on SMARCA4 was more than 90% throughout.
Consider `Cc1ncsc1-c1ccc([C@H](C)NC(=O)[C@@H]2C[C@@H](O)CN2C(=O)[C@H](C(C)C)n2cc(C3CCN(CCCN4CCC(c5ccc6c(c5)-n5c(nc(=O)c7c(Cl)cccc75)C6(C)C)CC4)CC3)nn2)cc1` [Compound B66, (2S,4R)-1-((S)-2-(4-(1-(3-(4-(4-chloro-7,7-dimethyl-5-oxo-5,7-dihydroindolo[1,2-a]quinazolin-10-yl)piperidin-1-yl)propyl)piperidin-4-yl)-1H-1,2,3-triazol-1-yl)-3-methylbutanoyl)-4-hydroxy-N—((S)-1-(4-(4-methylthiazol-5-yl)phenyl)ethyl)pyrrolidine-2-carboxamide], for which the DC50 on SMARCA2 (HT1080 CRISPR knock-in cells) and at SMARCA4 (HT1080 CRISPR knock-in cells) was less than 0.1 µM throughout. Also, the Dmax on SMARCA2 and at SMARCA4 was more than 90% each time.
For `Cc1ncsc1-c1ccc([C@H](C)NC(=O)[C@@H]2C[C@@H](O)CN2C(=O)[C@@H](c2cc(N3CCC(C(=O)N4CCC(c5ccc6c(c5)C(C)(C)c5nc(=O)c7c(Cl)cccc7n5-6)CC4)CC3)no2)C(C)C)cc1` [Compound B90, (2S,4R)-1-(2-(3-(4-(4-(4-chloro-7,7-dimethyl-5-oxo-5,7-dihydroindolo[1,2-a]quinazolin-9-yl)piperidine-1-carbonyl)piperidin-1-yl)isoxazol-5-yl)-3-methylbutanoyl)-4-hydroxy-N—((S)-1-(4-(4-methylthiazol-5-yl)phenyl)ethyl)pyrrolidine-2-carboxamide], the DC50 at SMARCA2 (HT1080 CRISPR knock-in cells) and on SMARCA4 (HT1080 CRISPR knock-in cells) was less than 0.1 µM each time. Also, the Dmax at SMARCA2 and at SMARCA4 was more than 90% each time.
In the case of `Cc1ncsc1-c1ccc([C@H](C)NC(=O)[C@@H]2C[C@@H](O)CN2C(=O)[C@@H](c2cc(N3CCC(CN4CCC(c5ccc6c(c5)-n5c(nc(=O)c7c(Cl)cccc75)C6(C)C)CC4)CC3)no2)C(C)C)cc1` [Compound B37, (2S,4R)-1-((R)-2-(3-(4-((4-(4-chloro-7,7-dimethyl-5-oxo-5,7-dihydroindolo[1,2-a]quinazolin-10-yl)piperidin-1-yl)methyl)piperidin-1-yl)isoxazol-5-yl)-3-methylbutanoyl)-4-hydroxy-N-((S)-1-(4-(4-methylthiazol-5-yl)phenyl)ethyl)pyrrolidine-2-carboxamide], the DC50 on SMARCA2 (HT1080 CRISPR knock-in cells) and on SMARCA4 (HT1080 CRISPR knock-in cells) was less than 0.1 µM in each case. In addition, the figures for the Dmax on SMARCA2 and at SMARCA4 were more than 90% and 70 to 90%, respectively.
For `Cc1cc([C@H](C(=O)N2C[C@H](O)C[C@H]2C(=O)N[C@@H](C)c2ccc(-c3scnc3C(=O)NCCCCOCCN3CCC(c4ccc5c(c4)-n4c(nc(=O)c6c(Cl)cccc64)C5(C)C)CC3)cc2)C(C)C)on1` [Compound B147, N-(4-(2-(4-(4-chloro-7,7-dimethyl-5-oxo-5,7-dihydroindolo[1,2-a]quinazolin-10-yl)piperidin-1-yl)ethoxy)butyl)-5-(4-((S)-1-((2S,4R)-4-hydroxy-1-((R)-3-methyl-2-(3-methylisoxazol-5-yl)butanoyl)pyrrolidine-2-carboxamido)ethyl)phenyl)thiazole-4-carboxamide], the DC50 on SMARCA2 (HT1080 CRISPR knock-in cells) fell in the range of 0.1 to 0.5 µM; on SMARCA4 (HT1080 CRISPR knock-in cells) it was 0.501 to 1 µM. The Dmax on SMARCA2 and on SMARCA4 was 50 to 69% each time.
`Cc1cc(C(C(=O)N2C[C@H](O)C[C@H]2C(=O)N[C@@H](CN2CCC(c3cccc4c3C(C)(C)c3nc(=O)c5c(Cl)cccc5n3-4)CC2)c2ccc(-c3scnc3C)cc2)C(C)C)on1` (stereo partly drawn) [Compound B154, (2S,4R)-N-((R)-2-(4-(4-chloro-7,7-dimethyl-5-oxo-5,7-dihydroindolo[1,2-a]quinazolin-8-yl)piperidin-1-yl)-1-(4-(4-methylthiazol-5-yl)phenyl)ethyl)-4-hydroxy-1-(3-methyl-2-(3-methylisoxazol-5-yl)butanoyl)pyrrolidine-2-carboxamide]: at SMARCA2 (HT1080 CRISPR knock-in cells), the “SMARC A2 HT1080 HiBit Dmax (%)” value is “A (A (>90% degradation))” and the DC50 is less than 0.1 µM. For the same molecule, at SMARCA4 (HT1080 CRISPR knock-in cells), the “SMARC A4 HT1080 HiBit Dmax(%)” value is “B (B (70-90% degradation))” and the DC50 was less than 0.1 µM.
Turning to `Cc1ncsc1-c1ccc([C@H](CC(=O)NCC2CCC(N3CCC(c4ccc5c(c4)-n4c(nc(=O)c6c(Cl)cccc64)C5(C)C)CC3)CC2)NC(=O)[C@@H]2C[C@@H](O)CN2C(=O)[C@@H](NC(=O)C2(F)CC2)C(C)(C)C)cc1` (stereo partly drawn) [Compound B53, (2S,4R)-N-((S)-3-(((4-(4-(4-chloro-7,7-dimethyl-5-oxo-5,7-dihydroindolo[1,2-a]quinazolin-10-yl)piperidin-1-yl)cyclohexyl)methyl)amino)-1-(4-(4-methylthiazol-5-yl)phenyl)-3-oxopropyl)-1-((S)-2-(1-fluorocyclopropane-1-carboxamido)-3,3-dimethylbutanoyl)-4-hydroxypyrrolidine-2-carboxamide], the DC50 at SMARCA2 (HT1080 CRISPR knock-in cells) and at SMARCA4 (HT1080 CRISPR knock-in cells) was 0.1 to 0.5 µM throughout. The figures for the Dmax at SMARCA2 and on SMARCA4 were 70 to 90% and 50 to 69%, respectively.
For the molecule `Cc1ncsc1-c1ccc([C@H](C)NC(=O)[C@@H]2C[C@@H](O)CN2C(=O)[C@@H](c2cc(N3CCC(CN4CCN(c5ccc6c(c5)-n5c(nc(=O)c7c(Cl)cccc75)C6(C)C)CC4)CC3)no2)C(C)C)cc1` [Compound B111, (2S,4R)-1-((R)-2-(3-(4-((4-(4-chloro-7,7-dimethyl-5-oxo-5,7-dihydroindolo[1,2-a]quinazolin-10-yl)piperazin-1-yl)methyl)piperidin-1-yl)isoxazol-5-yl)-3-methylbutanoyl)-4-hydroxy-N-((S)-1-(4-(4-methylthiazol-5-yl)phenyl)ethyl)pyrrolidine-2-carboxamide], the DC50 on SMARCA2 (HT1080 CRISPR knock-in cells) and at SMARCA4 (HT1080 CRISPR knock-in cells) was less than 0.1 µM each time. For the same molecule, the Dmax is more than 90% on SMARCA2 and 50 to 69% at SMARCA4.
Take `Cc1ncsc1-c1ccc([C@H](C)NC(=O)[C@@H]2C[C@@H](O)CN2C(=O)[C@H](C(C)C)n2cc(C3CCC(c4cccc5c4C(C)(C)c4nc(=O)c6c(Cl)cccc6n4-5)CC3)nn2)cc1` (stereo partly drawn) [Compound B137, (2S,4R)-1-((S)-2-(4-(4-(4-chloro-7,7-dimethyl-5-oxo-5,7-dihydroindolo[1,2-a]quinazolin-8-yl)cyclohexyl)-1H-1,2,3-triazol-1-yl)-3-methylbutanoyl)-4-hydroxy-N-((S)-1-(4-(4-methylthiazol-5-yl)phenyl)ethyl)pyrrolidine-2-carboxamide]: the DC50 at SMARCA2 (HT1080 CRISPR knock-in cells) and at SMARCA4 (HT1080 CRISPR knock-in cells) was less than 0.1 µM in each case. For the same molecule, the results for the Dmax at SMARCA2 and at SMARCA4 were more than 90% and less than 50%, respectively.
Turning to `C#Cc1ccc([C@H](C)NC(=O)[C@@H]2C[C@@H](O)CN2C(=O)[C@H](C(C)C)n2cc([C@H]3CC[C@H](CN4CCC(c5ccc6c(c5)-n5c(nc(=O)c7c(Cl)cccc75)C6(C)C)CC4)CC3)nn2)cc1` [Compound B128, (2S,4R)-1-((S)-2-(4-((1r,4S)-4-((4-(4-chloro-7,7-dimethyl-5-oxo-5,7-dihydroindolo[1,2-a]quinazolin-10-yl)piperidin-1-yl)methyl)cyclohexyl)-1H-1,2,3-triazol-1-yl)-3-methylbutanoyl)-N-((S)-1-(4-ethynylphenyl)ethyl)-4-hydroxypyrrolidine-2-carboxamide], the DC50 at SMARCA2 (HT1080 CRISPR knock-in cells) and at SMARCA4 (HT1080 CRISPR knock-in cells) was less than 0.1 µM throughout. Further, the results for the Dmax at SMARCA2 and on SMARCA4 were more than 90% and 70 to 90%, respectively.
As to `Cc1ncsc1-c1ccc2c(c1)CCC[C@@H]2NC(=O)[C@@H]1C[C@@H](O)CN1C(=O)[C@@H](n1cc([C@H]2CC[C@H](CN3CCC(c4ccc5c(c4)-n4c(nc(=O)c6c(Cl)cccc64)C5(C)C)CC3)CC2)nn1)C(C)(C)C` [Compound B146, (2S,4R)-1-((S)-2-(4-((1r,4S)-4-((4-(4-chloro-7,7-dimethyl-5-oxo-5,7-dihydroindolo[1,2-a]quinazolin-10-yl)piperidin-1-yl)methyl)cyclohexyl)-1H-1,2,3-triazol-1-yl)-3,3-dimethylbutanoyl)-4-hydroxy-N-((S)-6-(4-methylthiazol-5-yl)-1,2,3,4-tetrahydronaphthalen-1-yl)pyrrolidine-2-carboxamide], the figures for the DC50 at SMARCA2 (HT1080 CRISPR knock-in cells) and on SMARCA4 (HT1080 CRISPR knock-in cells) were less than 0.1 µM and 0.1 to 0.5 µM, respectively. Besides, the Dmax at SMARCA2 was more than 90%; on SMARCA4, 50 to 69%.

Values taken from patent US20260092071A1, “COMPOUNDS AND COMPOSITIONS AS SMARCA2/4 DEGRADERS AND USES THEREOF” (REGENTS OF THE UNIVERSITY OF MICHIGAN, priority 2022, published 2026).
